{"source": "patent KR20230169706A", "about": "“베타-카리오필렌을 포함하는 존속성 세균 억제용 조성물” (국민대학교산학협력단, priority 2022, dated 2023)", "system": "persister cells of Staphylococcus aureus ATCC 6538 [황색포도상구균(Staphylococcus aureus ATCC 6538), 존속성 세균(persister cell)]", "assay": "Persister cell inhibition by beta-caryophyllene co-treated with antibiotics at 10x MIC (CFU count)", "format": "cell-based", "note": "Entries after “also recorded” stand apart in the source; their conditions may differ.", "data": [{"smiles": "C=C1CC/C=C(\\C)CC[C@@H]2[C@@H]1CC2(C)C", "note": "[베타-카리오필렌, β-caryophyllene]", "values": [{"measurement": "amount of persister cells", "setting": "beta-caryophyllene 1 mM or more, each antibiotic (oxacillin, tobramycin, ciprofloxacin) at 10x MIC, 24 h", "value": "상당량 감소"}, {"measurement": "inhibition of persister cells", "setting": "beta-caryophyllene 2 mM or more, all antibiotics (oxacillin, tobramycin, ciprofloxacin) at 10x MIC, 24 h, about 80% or more", "value": "≥ 80", "unit": "%"}, {"measurement": "amount of persister cells", "setting": "beta-caryophyllene 1 to 10 mM", "value": "크게 저하"}, {"measurement": "inhibitory effect on persister cells", "setting": "beta-caryophyllene 2 to 10 mM, various antibiotics", "value": "≥ 80", "unit": "%"}, {"measurement": "amount of persister cells", "setting": "beta-caryophyllene together with antibiotic at 10x MIC, 24 h, no beta-caryophyllene concentration stated", "value": "존속성 세균의 양이 감소"}, {"measurement": "inhibition of persister cells", "setting": "ciprofloxacin, weight ratio beta-caryophyllene:antibiotic about 10:1 to 100:1", "value": "≥ 80", "unit": "%"}, {"measurement": "inhibition of persister cells", "setting": "oxacillin, weight ratio beta-caryophyllene:antibiotic about 100:1 to 800:1", "value": "≥ 80", "unit": "%"}, {"measurement": "inhibition of persister cells (in words)", "setting": "persister cells not killed by oxacillin, tobramycin or ciprofloxacin, no beta-caryophyllene concentration stated", "value": "상당량 억제; also recorded: 효과적으로 억제; also recorded: 우수한 억제 활성"}, {"measurement": "inhibition of persister cells", "setting": "tobramycin, weight ratio beta-caryophyllene:antibiotic about 5:1 to 30:1", "value": "≥ 80", "unit": "%"}]}]}
